From paper PMC2965864 (British Journal of Cancer, 2010)
Where two headings read alike, the source gives them in different places.

What was measured:
[1] = Plasma pharmacokinetics of sunitinib, SU012662 and total drug in patients; conditions: human, in vivo
Method: Pharmacokinetic analysis was carried out in a central laboratory, and pharmacokinetic parameter values were estimated using noncompartmental methods. Human potassium EDTA plasma pharmacokinetic samples were analysed for sunitinib and SU012662 and total drug (sunitinib plus SU012662) concentrations at BASi (West Lafayette, IN, USA) with the use of a validated, sensitive, and specific liquid chromatographic-tandem mass spectrometric method.
(§1) In cycle 1, sunitinib administration started on day 2. Both agents were evaluated in combination on cycle 2 day 1; samples were drawn before drug administration and at 1, 1.5, 2, 4, 6, 8, 10, and 24 hours post-dose.
(§2) Pharmacokinetic parameter values were calculated for each subject by noncompartmental analysis of concentration–time data using WinNonlin version 4.1 (http://pharmacy.ucsf.edu/irc/pdfs/wul_users_guide.pdf). […] Summary descriptives of pharmacokinetic values were presented only for paired observations with respect to each analyte. In the case where the dose for one of the paired observations was different from the other observation, dose correction to the intended dose was performed (correction factor: intended dose/actual dose). Dose correction to the MTD was performed. Individual patient trough plasma concentrations were summarised per cycle and study day. All concentrations that were below the limits of quantitation (BLQ) were set to zero before computation of descriptive statistics (BLQ values were excluded from the calculations of geometric means and the associated 95% confidence intervals).
(§3) Standard plasma pharmacokinetic parameters were used including the maximum plasma concentration (Cmax), time to Cmax (Tmax), area under the plasma concentration–time curve to the time of the last measurable concentration (AUC0–last) or infinity (AUC0–∞), clearance, and terminal elimination half-life (t1/2).

[2] = Plasma pharmacokinetics of irinotecan and SN-38 in patients; conditions: for Tlast: median; for Tmax: median (range), n=18–20 paired
Method: as §1, §2, §3

[3] = for Patients requiring dose delay / Patients with dose reduction: irinotecan; for Patients requiring dose delay: cycles 1 and 2; for Patients with dose reduction: first two cycles
Method: Seven days before the start of cycle 1, a single day's dose of sunitinib was administered to allow for the collection of samples for pharmacokinetic analysis.
In addition, prophylactic use of hematopoietic growth factors to support neutrophil or platelet counts was not recommended in cycle 1, but could be used in subsequent cycles.
Patients underwent regular physical examinations (usually on day 1 of each treatment cycle), laboratory tests (blood, usually on days 1 and 15 of each cycle, and urinalysis) and 12-lead electrocardiogram (at screening, at steady state level of sunitinib on cycle 2 day 1, and as clinically indicated in subsequent cycles). […] Response Evaluation Criteria for Solid Tumors version 1.0 ([Therasse et al 2000]) was used, requiring repeat imaging studies ⩾4 weeks after the initial documentation of response.

[4] = C2D1/C1D1 (sunitinib+irinotecan relative to irinotecan alone), both cohorts combined

## CCNCCNC(=O)c1c(C)[nH]c(/C=C2\C(=O)Nc3ccc(F)cc32)c1C [SU012662]
[1]
  AUC0–last: 53.2 (30.9) ng h ml^−1
  Cmax: 3.6 (32.5) ng ml^−1
  Tlast: 24.0 h
[1]; 25 mg
  AUC0–last: 38.6 (54.4) ng h ml^−1
  Cmax: 2.4 (51.4) ng ml^−1

## CCc1c2c(nc3ccc(O)cc13)-c1cc3c(c(=O)n1C2)COC(=O)[C@]3(O)CC [SN-38]
[2]; [4]
  Geometric mean ratio of AUC0–last: 1.20
  Geometric mean ratio of Cmax: 1.13
[2]; Irinotecan alone C1D1, mean (CV%)
  AUC0–last: 0.31 (61.7) μg h ml^−1
[2]; Irinotecan alone C1D1, mean (CV%), dose corrected to 250 mg m^−2
  Cmax: 0.03 (51.4) μg ml^−1
[2]; Irinotecan alone C1D1
  Tlast: 24.0 h
  Tmax: 1.1 (1.0–4.2) h
[2]; Sunitinib+irinotecan C2D1, mean (CV%)
  AUC0–last: 0.36 (52.8) μg h ml^−1
[2]; Sunitinib+irinotecan C2D1, mean (CV%), dose corrected to 250 mg m^−2
  Cmax: 0.04 (50.0) μg ml^−1
[2]; Sunitinib+irinotecan C2D1
  Tlast: 24.0 h
  Tmax: 1.5 (0.9–4.1) h

## CCc1c2c(nc3ccc(OC(=O)N4CCC(N5CCCCC5)CC4)cc13)-c1cc3c(c(=O)n1C2)COC(=O)[C@]3(O)CC [Irinotecan, irinotecan]
[2]; Irinotecan alone C1D1
  Tlast: 24.0 h
[2]; Sunitinib+irinotecan C2D1
  Tlast: 24.0 h
[2]; human, in vivo
  AUC0–last: 16.9 (33.3) μg h ml^−1
  AUC0–∞: 18.1 (34.0) μg h ml^−1
[2]; human, in vivo, 250 mg
  Cmax: 2900 ng/mL
[2]; human, in vivo, AUC0–last
  AUC(0-t): 14900 ng·h/mL
[2]; human, in vivo, AUC0–∞
  AUC(0-inf): 15900 ng·h/mL
[3]; irinotecan day 1 of 21-day cycle, with sunitinib 25 mg per day days 1–14
  Maximum tolerated dose (MTD): 250 mg m^−2
[3]; cohort 1
  Patients requiring dose delay: four
  Patients with dose reduction: six
[3]; cohort 2
  Patients requiring dose delay: one
  Patients with dose reduction: one

## CCN(CC)CCNC(=O)c1c(C)[nH]c(/C=C2\C(=O)Nc3ccc(F)cc32)c1C [Sunitinib, sunitinib]
[1]
  AUC(0-t): 226 ng·h/mL
  Cmax: 13 ng/mL
  Tlast: 24.0 h
[1]; 25 mg
  AUC(0-t): 266 ng·h/mL
  Cmax: 16.3 ng/mL
[3]; sunitinib days 1–14 of 21-day cycle, with irinotecan 250 mg m^−2 day 1
  Maximum tolerated dose (MTD): 25 mg per day
